{
  "source": "patent US9540428B2",
  "about": "“Extracellular matrix heparin-binding domains” (EPFL-TTO, priority 2012, dated 2017)",
  "molecules": {"B1": {"name": "VEGF-A165: vascular endothelial growth factor, cytokine applied topically (protein)", "chain": "APMAEGGGQNHHEVVKFMDVYQRSYCHPIETLVDIFQEYPDEIEYIFKPSCVPLMRCGGCCNDEGLECVPTEESNITMQIMRIKPHQGQHIGEMSFLQHNKCECRPKKDRARQENPCGPCSERRKHLFVQDPQTCKCSCKNTDSRCKARQLELNERTCRCDKPRR"}, "B2": {"name": "PDGF-BB: platelet derived growth factor BB (REGRANEx®) applied topically (protein)", "chain": "SLGSLTIAEPAMIAECKTRTEVFEISRRLIDRTNANFLVWPPCVEVQRCSGCCNNRNVQCRPTQVQLRPVQVRKIEIVRKKPIFKKATVTLEDHLACKCETVAAARPVT"}, "B3": {"name": "TNC III5: fifth fibronectin type III domain of tenascin C, heparin-binding; tested as GST fusion (protein)", "chain": "LQVSETAETSLTLLWKTPLAKFDRYRLNYSLPTGQWVGVQLPRNTTSYVLRGLEPGQEYNVLLTAEKGRHKSKPARVKASTEQA", "modifications": "left off: a dimerising Fc or GST", "notes": "tested as GST fusion"}, "B4": {"name": "TNC III4-5: fibronectin type III domains 4-5 of tenascin C (protein)", "chain": "APRNLRRVSQTDNSITLEWRNGKAAIDSYRIKYAPISGGDHAEVDVPKSQQATTKTTLTGLRPGTEYGIGVSAVKEDKESNPATINAATELDTPKDLQVSETAETSLTLLWKTPLAKFDRYRLNYSLPTGQWVGVQLPRNTTSYVLRGLEPGQEYNVLLTAEKGRHKSKPARVKASTEQA"}},
  "key": {"SMC": {"tested_on": "SMC", "assay": "Smooth muscle cell proliferation on modified TG-PEG gels with PDGF-BB", "format": "cell-based", "description": "Method: Three different gels were fabricated, unmodified PEG, and PEG gels modified with TNC III1-5 or FN III9*-10,TNC III1-5 (5 μM). Unbound fragment was washed from the gels. Sequentially, gels were incubated for 1 hour at 37° C. with 100 μL DMEM without PDGF-BB or with PDGF-BB (1 ng per gel). For one set of gels, the media containing PDGF-BB was removed and gels were washed for 1 hour at RT. Cells were added to each gel and a proliferation assay with Alamar Blue was performed at 72 hours."}, "[1]": {"target": "T1, binding of TNC III1-5 to the cytokines (Homo sapiens, UniProt P24821)", "T1 construct": "factor Xa cleavage site (N); made in house; host or cells: HEK-293E", "T1 sequence (P24821 622-1074)": "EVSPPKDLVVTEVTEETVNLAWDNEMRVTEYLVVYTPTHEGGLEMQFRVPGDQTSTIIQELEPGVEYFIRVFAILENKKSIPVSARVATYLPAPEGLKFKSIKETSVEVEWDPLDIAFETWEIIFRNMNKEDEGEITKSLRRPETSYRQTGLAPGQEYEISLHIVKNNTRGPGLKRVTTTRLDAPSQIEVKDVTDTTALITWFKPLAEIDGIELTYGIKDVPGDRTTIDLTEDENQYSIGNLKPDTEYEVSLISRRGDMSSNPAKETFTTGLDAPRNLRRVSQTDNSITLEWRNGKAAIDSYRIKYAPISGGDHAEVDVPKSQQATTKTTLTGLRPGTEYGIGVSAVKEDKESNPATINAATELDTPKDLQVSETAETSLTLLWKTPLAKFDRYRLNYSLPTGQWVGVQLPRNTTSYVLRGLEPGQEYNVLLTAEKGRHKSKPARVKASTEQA", "assay": "Competition ELISA: TNC III1-5 binding to cytokines with gradient of full length tenascin or heparin", "settings": "high concentrations of competitor; 10 nM TNC III1-5", "description": "ELISA plates were coated with cytokines or BSA and further incubated with TNC III1-5 in the presence of a gradient of full length tenascin or heparin to verify the specificity of the binding. […] TNC bound to the cytokines, making them unavailable for TNC III1-5, while heparin bound to TNC III1-5, blocking it to bind to the cytokines. Method: 50 nM of cytokine was coated for (1 hr, 37° C.). After blocking with 2% BSA (1 hr, RT). 10 nM TNC III1-5 was applied in PBST (0.05% tween, 0.1% bovine serum albumin (BSA)) (1 hr, RT) in the presence of a gradient of full length tenascin (0, 0.2, 0.6, 1.9, 5.6, 17, 50 nM) or heparin (0.01, 0.64, 3.2, 16, 80, 400, 2000, 10000). TNC III1-5 was detected with HRP-anti-HIS in PBST (1 hr, RT) and developed with TMB. Background values were obtained by applying each tenascin (0, 0.2, 0.6, 1.9, 5.6, 17, 50 nM) or heparin (0.01, 0.64, 3.2, 16, 80, 400, 2000, 10000) concentration to the cytokine without TNC III1-5, and were subtracted as normalization.\nTo verify specific binding of tenascin to the cytokines, tenascin (0, 0.1, 0.2, 0.6, 1.9, 5.6, 17, 50 nM) was incubated with PDGF-BB (50 nM) and BSA and detected with mouse anti-tenascin, HRP-anti-mouse, and TMB."}, "HUVEC cells": {"tested_on": "HUVEC cells", "assay": "HUVEC proliferation with cytokines with or without fibrinogen or Fg β15-66", "format": "cell-based, human", "settings": "72 hours; ≧100-fold molar excess; VEGF-A165, PlGF-2, FGF-2", "description": "To verify that cytokines bound to Fg β15-66 are still bioactive, the proliferation of HUVEC cells was tested for different cytokines with and without the presence of Fg β15-66. Method: HUVEC cells were stimulated with various cytokines: VEGF-A165, PlGF-2, and FGF-2 with or without fibrinogen or Fg β15-66 in excess (≧100-fold molar excess)."}, "[2]": {"target": "T2, binding of TNC III1-5 to cytokines (Homo sapiens, UniProt P24821)", "T2 construct": "factor Xa cleavage site (N); made in house; host or cells: HEK-293E", "assay": "ELISA binding of TNC III1-5 to cytokines in presence of 4 μM heparin", "settings": "heparin 4 μM; 100 nM TNC III1-5", "description": "ELISA plates were coated with cytokines or BSA and further incubated with TNC III1-5 to analyze binding of TNC III1-5 to a wide variety of cytokines. […] Results are depicted in FIG. 3. Method: 50 nM of cytokine was coated for (1 hr, 37° C.). After blocking with 2% BSA (1 hr, RT). 100 nM TNC III1-5 was applied in PBST (0.05% tween, 0.1% bovine serum albumin (BSA)) (1 hr, RT). TNC III1-5 was detected with horseradish peroxidase (HRP)-anti-HIS in PBST (1 hr, RT) and developed with 3,3′,5,5′-tetramethylbenzidine (TMB), a soluble colorimetric HRP […]. Addition of sulfuric acid stop solution changes the color to yellow, enabling accurate measurement of the intensity at 450 nm using a spectrophotometer or plate reader. […] Heparin (4 μM) was added to TNC III1-5 to test the effect of blocking the heparin binding site of TNC III1-5, which has been defined as domain TNC III5 (Weber, Zimmermann, et al., 1995)."}, "skin wounds": {"tested_on": "skin wounds", "settings": "applied topically for five consecutive days; 20 μg/wound VEGF-A165 or 10 μg/wound PDGF-BB; cited from earlier work"}, "PDGF-BB": {"target": "PDGF-BB (Homo sapiens, UniProt P01127)", "assay": "ELISA of individual TNC domains binding PDGF-BB", "description": "An ELISA was performed to test the affinity of different domains present in TNC1-5 to PDGF-BB as an example cytokine that has shown to bind TNC III1-5. […] Method: ELISA plates were coated with individual TNC domains fused to GST, as well as GST and BSA. Wells were blocked with BSA and then incubated with 2 nM PDGF-BB. Binding of PDGF-BB was detected using an anti-PDGF-BB antibody and then a secondary horseradish peroxidase conjugated antibody."}},
  "data": [
    {"molecule": "FN III9*-10-TNC III1-5: fusion protein of fibronectin integrin binding domain FN III9*-10 and TNC III1-5 with TG substrate, SEQ ID NO:5", "values": [
      {"measurement": "SMC proliferation on top of a PEG gel, fusion vs TNC III1-5", "setting": "SMC; addition of FN III9*-10 to TNC III1-5", "value": "significantly enhanced SMC proliferation"},
      {"measurement": "SMC proliferation on TG-PEG gels (2%)", "setting": "SMC; in the presence of PDGF-BB, 5 μM fragment, 72 hours", "value": "enhanced SMC proliferation"}
    ]},
    {"molecule": "TNC: full length tenascin C, extracellular matrix glycoprotein, used as competitor", "values": [
      {"measurement": "competition of binding of TNC III1-5 to the cytokines", "setting": "[1]", "value": "competed away binding"}
    ]},
    {"molecule": "fibrinogen [reference compound]", "values": [
      {"measurement": "synergistic effect on HUVEC proliferation, cytokines plus protein vs cytokines alone", "setting": "HUVEC cells", "value": "no synergistic effect"}
    ]},
    {"molecule": "heparin", "values": [
      {"measurement": "effect on binding of TNC III1-5 to cytokines", "setting": "[2]", "value": "impaired binding"},
      {"measurement": "competition of binding of TNC III1-5 to the cytokines", "setting": "[1]", "value": "competed away binding"}
    ]},
    {"molecule": "B1", "values": [
      {"measurement": "efficacy in the db/db mouse", "setting": "skin wounds", "value": "efficient"}
    ]},
    {"molecule": "B2", "values": [
      {"measurement": "efficacy in the db/db mouse", "setting": "skin wounds", "value": "efficient"}
    ]},
    {"molecule": "B3", "values": [
      {"measurement": "domain responsible for binding of PDGF-BB", "setting": "PDGF-BB; GST-fused TNC domains coated, 2 nM PDGF-BB", "value": "responsible for cytokine binding"}
    ]},
    {"molecule": "B4", "values": [
      {"measurement": "cytokine-binding", "setting": "PDGF-BB; test not specified", "value": "demonstrated cytokine-binding"}
    ]}
  ]
}
